Test results taken from PMC9037111, “Structure-based design, synthesis, and biological evaluation of novel piperine–resveratrol hybrids as antiproliferative agents targeting SIRT-2” (RSC Advances, 2021).
Where two headings read alike, the source gives them in different places.

Legend:
HCT-15 = experiment: cells; design: species or system NCI-60 human tumour cell lines; NCI-60 one-dose screen at 10 uM, percent growth inhibition versus untreated control cells; conditions: Homo sapiens, HCT-15, growth inhibition, one dose
Procedure: (§1) The antiproliferative activity of the target compounds 5a–h was screened against a panel of 60 cancer cell lines according to NCI-guidelines at concentration of 10 μM. The results for each compound (Table 1) were recorded as the percent of growth inhibition of treated cells compared to untreated control cells. […] In addition, 5b recorded significant activity against leukemia cancer cell lines K-562 and MOLT-4, Non-small cell lung cancer cell lines NCI-H322M and NCI-H460, Colon cancer cell lines COLO 205, HCT-15 and HCT-116, CNS cancer cell lines SF-295 and SF-539, Melanoma cancer cell lines LOX IMVI and UACC-62, Ovarian cancer cell lines NCI/ADR-RES, OVCAR-3, and OVCAR-4, Renal cancer cell lines CAKI-1, ACHN, and UO-31, and Breast cancer MCF7 cell line with growth inhibition percentage between 80 to 95. […] The methodology of the NCI anticancer screening has been described in detail elsewhere (https://dtp.cancer.gov/).[52]

NCI-H522 = experiment: cells; design: species or system NCI-60 human tumour cell lines; NCI-60 one-dose screen at 10 uM, percent growth inhibition versus untreated control cells; conditions: Homo sapiens, NCI-H522, growth inhibition, one dose
Procedure: as §1

KM12 = experiment: cells; design: species or system NCI-60 human tumour cell lines; NCI-60 one-dose screen at 10 uM, percent growth inhibition versus untreated control cells; conditions: Homo sapiens, KM12, growth inhibition, one dose
Procedure: as §1

SIRT2 [1] = target: T1, SIRT2 (Homo sapiens, UniProt Q8IXJ6); experiment: biochemical; design: Sirtuin-TK assay, percent inhibition of human SIRT1 or SIRT2 at 5 and 50 uM
T1 sequence (Q8IXJ6 2-389): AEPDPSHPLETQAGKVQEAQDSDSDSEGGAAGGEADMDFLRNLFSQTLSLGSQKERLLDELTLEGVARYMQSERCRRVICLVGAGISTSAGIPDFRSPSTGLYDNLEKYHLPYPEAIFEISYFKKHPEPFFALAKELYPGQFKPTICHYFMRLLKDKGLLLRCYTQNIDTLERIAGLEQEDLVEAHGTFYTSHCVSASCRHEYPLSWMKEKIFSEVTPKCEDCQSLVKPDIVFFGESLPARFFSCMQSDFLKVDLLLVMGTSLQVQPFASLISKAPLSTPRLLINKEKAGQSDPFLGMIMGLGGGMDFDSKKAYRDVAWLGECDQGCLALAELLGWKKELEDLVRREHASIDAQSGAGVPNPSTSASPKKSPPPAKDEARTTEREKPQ
Procedure: (§2) Sirtuin-TK assay was performed to estimate the Sirtuins inhibitory potential of 5a–h (Tables 2 and 3). The results of this test strongly complemented the findings of cancer cell-based assessments. […] Of the 8 compounds evaluated, 3 analogs (5b, 5e and 5h) were more likely to inhibit Sirt2 (>70% inhibition) than Sirt1 (<50% inhibition) at 50 μM. The other compounds were poor inhibitors of both enzymes. […] 4.2.2. Sirtuin inhibitory assay

SIRT1 = target: T2, SIRT1 (Homo sapiens, UniProt Q96EB6); experiment: biochemical; design: Sirtuin-TK assay, percent inhibition of human SIRT1 or SIRT2 at 5 and 50 uM
T2 sequence (Q96EB6 2-747): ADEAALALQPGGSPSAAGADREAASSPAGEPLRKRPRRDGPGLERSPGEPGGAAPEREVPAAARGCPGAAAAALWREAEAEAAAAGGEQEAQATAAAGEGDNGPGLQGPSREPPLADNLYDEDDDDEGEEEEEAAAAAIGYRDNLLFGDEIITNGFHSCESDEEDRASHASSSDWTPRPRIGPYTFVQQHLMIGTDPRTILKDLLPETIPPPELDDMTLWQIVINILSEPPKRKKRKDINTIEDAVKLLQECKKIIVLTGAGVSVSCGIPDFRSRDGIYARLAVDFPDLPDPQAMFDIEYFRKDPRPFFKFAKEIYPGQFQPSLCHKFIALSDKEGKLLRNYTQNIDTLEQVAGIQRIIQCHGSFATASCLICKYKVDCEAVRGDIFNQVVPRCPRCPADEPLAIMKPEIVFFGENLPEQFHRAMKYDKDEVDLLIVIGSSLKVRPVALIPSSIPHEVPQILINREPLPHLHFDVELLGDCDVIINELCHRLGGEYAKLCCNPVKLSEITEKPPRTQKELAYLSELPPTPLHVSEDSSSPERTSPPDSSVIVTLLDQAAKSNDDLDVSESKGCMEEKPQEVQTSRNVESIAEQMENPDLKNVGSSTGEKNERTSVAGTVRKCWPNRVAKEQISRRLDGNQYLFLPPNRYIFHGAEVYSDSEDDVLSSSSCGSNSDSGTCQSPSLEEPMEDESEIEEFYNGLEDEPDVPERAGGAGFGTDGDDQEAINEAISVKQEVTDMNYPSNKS
Procedure: as §2

NCI-H322M = experiment: cells; design: species or system NCI-60 human tumour cell lines; NCI-60 one-dose screen at 10 uM, percent growth inhibition versus untreated control cells; conditions: Homo sapiens, NCI-H322M, growth inhibition, one dose
Procedure: as §1

HS 578 T = experiment: cells; design: species or system NCI-60 human tumour cell lines; NCI-60 one-dose screen at 10 uM, percent growth inhibition versus untreated control cells; conditions: Homo sapiens, Hs-578T, growth inhibition, one dose
Procedure: as §1

NCI-H460 = experiment: cells; design: species or system NCI-60 human tumour cell lines; NCI-60 one-dose screen at 10 uM, percent growth inhibition versus untreated control cells; conditions: Homo sapiens, NCI-H460, growth inhibition, one dose
Procedure: as §1

NCI-H226 = experiment: cells; design: species or system NCI-60 human tumour cell lines; NCI-60 one-dose screen at 10 uM, percent growth inhibition versus untreated control cells; conditions: Homo sapiens, NCI-H226, growth inhibition, one dose
Procedure: as §1

SIRT2 [2] = target: T1, SIRT2; experiment: sirtuin deacetylase inhibition assay, IC50; assay type: biochemical
[3] = read-out: Growth% inhibition / 5d
[4] = read-out: Growth% inhibition / 5a
[5] = read-out: Growth% inhibition / 5b
[6] = read-out: Growth% inhibition / 5e
[7] = read-out: Growth% inhibition / 5h

## CN(C)c1ccc(C=NNC(=O)/C=C/C=C/c2ccc3c(c2)OCO3)cc1 (mixture of isomers) [5d, (2E,4E)-5-(Benzo[d][1,3]dioxol-5-yl)-N′-((E/Z)-4-(dimethylamino)-benzylidene)penta-2,4-dienehydrazide]
HCT-15; [3]
  inhibition at 10 µM: 24.2%
NCI-H522; [3]
  inhibition at 10 µM: 11.7%
KM12; [3]
  inhibition at 10 µM: 14.2%
SIRT2 [1]
  inhibition at 5 µM: 18 ± 2%
SIRT1
  inhibition at 5 µM: 11 ± 2%

## O=C(/C=C/C=C/c1ccc2c(c1)OCO2)NN=Cc1ccc(O)cc1 [5a, (2E,4E)-5-(Benzo[d][1,3]dioxol-5-yl)-N′-((E,Z)-4-hydroxybenzylidene)penta-2,4-dienehydrazide]
HCT-15; [4]
  inhibition at 10 µM: 39.7%
NCI-H522; [4]
  inhibition at 10 µM: 22.8%
KM12; [4]
  inhibition at 10 µM: 33.4%
NCI-H322M; [4]
  inhibition at 10 µM: 18.5%
SIRT2 [1]
  inhibition at 5 µM: 19 ± 3%
SIRT1
  inhibition at 5 µM: 13 ± 3%
  inhibition at 50 µM: 42 ± 3%

## O=C(/C=C/C=C/c1ccc2c(c1)OCO2)N/N=C/c1ccc(O)cc1O [5b, (2E,4E)-5-(Benzo[d][1,3]dioxol-5-yl)-N′-((E)-2,4-dihydroxybenzylidene)penta-2,4-dienehydrazide]
HCT-15; [5]
  inhibition at 10 µM: 83%
NCI-H522; [5]
  inhibition at 10 µM: 78.9%
KM12; [5]
  inhibition at 10 µM: 76.6%
HS 578 T; [5]
  inhibition at 10 µM: 29.8%
NCI-H460; [5]
  inhibition at 10 µM: 86%
NCI-H322M; [5]
  inhibition at 10 µM: 82.2%
NCI-H226; [5]
  inhibition at 10 µM: 62.4%
SIRT2 [1]
  inhibition at 5 µM: 26 ± 3%
  inhibition at 50 µM: 78 ± 3%
SIRT1
  inhibition at 5 µM: 18 ± 3%
SIRT2 [2]
  IC50: 21 ± 3 µM

## CCN(CC)c1ccc(/C=N/NC(=O)/C=C/C=C/c2ccc3c(c2)OCO3)c(O)c1 [5e, (2E,4E)-5-(Benzo[d][1,3]dioxol-5-yl)-N′-((E)-4-(diethylamino)-2-hydroxybenzylidene)penta-2,4-dienehydrazide]
HCT-15; [6]
  inhibition at 10 µM: 78.7%
NCI-H522; [6]
  inhibition at 10 µM: 87.5%
KM12; [6]
  inhibition at 10 µM: 69.8%
HS 578 T; [6]
  inhibition at 10 µM: 31.9%
NCI-H460; [6]
  inhibition at 10 µM: 80.2%
NCI-H322M; [6]
  inhibition at 10 µM: 66.8%
NCI-H226; [6]
  inhibition at 10 µM: 50.5%
SIRT2 [1]
  inhibition at 5 µM: 24 ± 3%
  inhibition at 50 µM: 74 ± 2%
SIRT1
  inhibition at 5 µM: 20 ± 5%
  inhibition at 50 µM: 44 ± 2%
SIRT2 [2]
  IC50: 23 ± 2 µM

## C/C(=N\NC(=O)/C=C/C=C/c1ccc2c(c1)OCO2)c1ccc(Br)cc1 [5h, (2E,4E)-5-(Benzo[d][1,3]dioxol-5-yl)-N′-((E)-1-(4-bromophenyl)ethylidene)penta-2,4-dienehydrazide]
HCT-15; [7]
  inhibition at 10 µM: 36.3%
NCI-H522; [7]
  inhibition at 10 µM: 19.9%
KM12; [7]
  inhibition at 10 µM: 24.9%
HS 578 T; [7]
  inhibition at 10 µM: 86.5%
NCI-H460; [7]
  inhibition at 10 µM: 60.4%
NCI-H322M; [7]
  inhibition at 10 µM: 36.5%
NCI-H226; [7]
  inhibition at 10 µM: 24.1%
SIRT2 [1]
  inhibition at 5 µM: 22 ± 5%
  inhibition at 50 µM: 75 ± 3%
SIRT1
  inhibition at 5 µM: 16 ± 5%
  inhibition at 50 µM: 44 ± 3%
SIRT2 [2]
  IC50: 26 ± 3 µM
